Where two headings read alike, the source gives them in different places.
Assays:
[1] = target: T1, full-length beta-Catenin (Uniprot ID P35222) (Homo sapiens, UniProt P35222); assay: Fluorescence polarization IC50 (beta-catenin / 5FAM-TCF4 10-53 competition); assay type: binding; details: read-out: beta-Catenin FP IC50
T1 construct: 10 nM full-length beta-Catenin (Uniprot ID P35222)
T1 sequence (P35222 1-781): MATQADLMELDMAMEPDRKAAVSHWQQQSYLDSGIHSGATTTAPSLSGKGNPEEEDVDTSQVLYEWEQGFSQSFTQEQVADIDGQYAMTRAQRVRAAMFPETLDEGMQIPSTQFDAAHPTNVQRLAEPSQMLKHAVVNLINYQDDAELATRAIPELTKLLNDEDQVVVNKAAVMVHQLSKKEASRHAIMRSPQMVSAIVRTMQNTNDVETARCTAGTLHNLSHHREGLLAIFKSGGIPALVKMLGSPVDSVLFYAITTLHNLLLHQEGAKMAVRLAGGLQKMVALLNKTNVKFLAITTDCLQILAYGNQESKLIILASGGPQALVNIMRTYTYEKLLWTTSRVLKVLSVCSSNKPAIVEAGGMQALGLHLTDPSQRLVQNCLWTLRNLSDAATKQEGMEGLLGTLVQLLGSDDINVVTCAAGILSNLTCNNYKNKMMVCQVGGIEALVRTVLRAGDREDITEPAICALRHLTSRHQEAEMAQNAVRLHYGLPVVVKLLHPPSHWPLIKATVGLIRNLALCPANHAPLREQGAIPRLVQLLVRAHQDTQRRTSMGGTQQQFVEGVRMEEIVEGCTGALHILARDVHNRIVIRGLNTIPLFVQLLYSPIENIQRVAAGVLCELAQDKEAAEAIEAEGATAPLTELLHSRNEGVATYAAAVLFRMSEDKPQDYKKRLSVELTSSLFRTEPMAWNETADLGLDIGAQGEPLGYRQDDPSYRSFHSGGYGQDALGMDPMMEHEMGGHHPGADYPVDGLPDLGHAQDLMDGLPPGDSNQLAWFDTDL

[2] = target: T2, beta-catenin/TCF4 engagement (Homo sapiens, UniProt P35222); assay: Nano-BRET target engagement assay (B-cat-Halo & TCF4-Luc in HEK293 cells); assay type: cell-based; details: absolute IC50; read-out: NanoBRET Abs IC50
T2 construct: expressed in transfected cells; host or cells: HEK293
T2 sequence (P35222 1-781): T1 sequence (P35222 1-781)

[3] = system: TCF/LEF luciferase Reporter in DLD1 cells; assay: TCF reporter assay (DLD1 TCF/LEF luciferase reporter, Bright-Glo); assay type: cell-based; details: absolute IC50
In short: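 DLD1 cells stably carrying a TCF/LEF luciferase reporter were plated at 5000 cells/well in RPMI + 4% FBS and treated overnight with a 1:2 compound dilution series. Bright-Glo luminescence read on day 3; viability by CellTiter-Glo. Absolute IC50 determined.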

[4] = read-out: DLD1 4% Abs IC50, DLD1 reporter, 4%
[5] = read-out: DLD1 4% Abs IC50, DLD1 reporter assay, 4%
[6] = read-out: DLD1 reporter assay Abs IC50

Row | IC50 ([1]; fluorescence polarization) | IC50 [2] | IC50 [3, 4] | IC50 [3, 5] | IC50 [1] | IC50 [3, 6] | Compound
1 | 0.017 µM | 2.8 µM | 2.2 µM | – | – | – | CC(=O)N1CCC[C@]12CC=CCCCC1(CCCC=CCCCOC(=O)N3CC[C@@](C(=O)N[C@@H](Cc4ccccc4C(F)(F)F)C(=O)N[C@@H](Cc4csc5ccccc45)C(=O)N[C@@H](CCC(N)=O)C(=O)N[C@@H](C)C(=O)N[C@@H](C)C(N)=O)(C3)NC(=O)[C@H](CC(C)C)NC(=O)[C@H](Cc3ccccc3)NC(=O)[C@H](C)NC(=O)[C@H](C)NC(=O)[C@H](Cc3cccc(C(=O)O)c3)NC(=O)[C@H](CC(=O)O)NC1=O)NC(=O)[C@H](CC(C)(C)C)NC(=O)[C@H](CC(=O)O)NC2=O (stereo partly drawn) [I-2399, Ac-PL3-Asp-Npg-B5-Asp-3COOHF-Ala-Ala-Phe-Leu-PyrS2-2F3MeF-BztA-Gln-Ala-Ala-NH2]
2 | 0.007 µM | 3.4 µM | 2.6 µM | – | – | – | CC(=O)N1CCC[C@]12CC=CCCCC1(CCCC=CCCCOC(=O)N3CC[C@@](C(=O)N[C@@H](Cc4ccccc4C(F)(F)F)C(=O)N[C@@H](Cc4csc5ccccc45)C(=O)N[C@@H](CO)C(N)=O)(C3)NC(=O)[C@H](CC(C)C)NC(=O)[C@H](Cc3ccccc3)NC(=O)[C@H](C)NC(=O)[C@H](C)NC(=O)[C@H](Cn3cc(C(C)(C)C(=O)O)nn3)NC(=O)[C@H](CC(=O)O)NC1=O)NC(=O)[C@H](CC(C)(C)C)NC(=O)[C@H](CC(=O)O)NC2=O (stereo partly drawn) [I-2374, Ac-PL3-Asp-Npg-B5-Asp-[CMe2CO2H]TriAzDap-Ala-Ala-Phe-Leu-PyrS2-2F3MeF-BztA-Ser-NH2]
3 | 0.014 µM | 6.2 µM | – | 3.9 µM | – | – | CC(=O)NCCCC[C@H](NC(=O)[C@H](Cc1csc2ccccc12)NC(=O)[C@H](Cc1ccsc1)NC(=O)[C@]12CCN(C1)C(=O)OCCCC=CCCCC1(CCCC=CC[C@]3(CCCN3C(C)=O)C(=O)N[C@@H](CC(=O)O)C(=O)N[C@@H](CC(C)(C)C)C(=O)N1)C(=O)N[C@@H](CC(=O)O)C(=O)N[C@@H](CN(CC(=O)O)CC(F)(F)F)C(=O)N[C@@H](C)C(=O)N[C@@H](C)C(=O)N[C@@H](Cc1ccccc1)C(=O)N[C@@H](CC(C)C)C(=O)N2)C(N)=O (stereo partly drawn) [I-1709, Ac-PL3-Asp-Npg-B5-Asp-TfeGA-Ala-Ala-Phe-Leu-PyrS2-3Thi-BztA-AcLys-NH2]
4 | 0.037 µM | 4.4 µM | 0.8 µM | – | – | – | CC(=O)N1CCC[C@]12CC=CCCCC1(CCCC=CCCCOC(=O)N3CC[C@@](C(=O)N[C@@H](Cc4ccccc4C(F)(F)F)C(=O)N[C@@H](Cc4csc5ccccc45)C(=O)N[C@@H](CCC(N)=O)C(=O)N[C@H](C(=O)N[C@@H](C)C(N)=O)C(C)C)(C3)NC(=O)[C@H](CC(C)C)NC(=O)[C@H](Cc3ccccc3)NC(=O)[C@H](C)NC(=O)[C@H](C)NC(=O)[C@H](Cc3cccc(C(=O)O)c3)NC(=O)[C@H](CC(=O)O)NC1=O)NC(=O)[C@H](CC(C)(C)C)NC(=O)[C@H](CC(=O)O)NC2=O (stereo partly drawn) [I-2401, Ac-PL3-Asp-Npg-B5-Asp-3COOHF-Ala-Ala-Phe-Leu-PyrS2-2F3MeF-BztA-Gln-Val-Ala-NH2]
5 | 0.013 µM | 4.5 µM | – | 2.8 µM | – | – | CC(=O)N1CCC[C@]12CC=CCCCC1(CCCC=CCCCOC(=O)N3CC[C@@](C(=O)N[C@@H](Cc4ccccc4C(F)(F)F)C(=O)N[C@@H](Cc4csc5ccccc45)C(=O)N[C@@H](CCCCNC(C)C)C(N)=O)(C3)NC(=O)[C@H](CC(C)C)NC(=O)[C@H](Cc3ccccc3)NC(=O)[C@H](C)NC(=O)[C@H](C)NC(=O)[C@H](Cc3cccc(C(=O)O)c3)NC(=O)[C@H](CC(=O)O)NC1=O)NC(=O)[C@H](CC(C)(C)C)NC(=O)[C@H](CC(=O)O)NC2=O (stereo partly drawn) [I-1616, Ac-PL3-Asp-Npg-B5-Asp-3COOHF-Ala-Ala-Phe-Leu-PyrS2-2F3MeF-BztA-iPrLys-NH2]
6 | 0.133 µM | 5.7 µM | 1.2 µM | – | – | – | CC(=O)N1CCC[C@]12CC=CCCCC1(CCCC=CCCCOC(=O)N3CC[C@@](C(=O)N[C@@H](Cc4ccccc4C(F)(F)F)C(=O)N[C@@H](Cc4csc5ccccc45)C(=O)N[C@@H](CCC(N)=O)C(=O)N[C@@H](CC(C)C)C(=O)NC4(C(N)=O)CCC4)(C3)NC(=O)[C@H](CC(C)C)NC(=O)[C@H](Cc3ccccc3)NC(=O)[C@H](C)NC(=O)[C@H](C)NC(=O)[C@H](Cc3cccc(C(=O)O)c3)NC(=O)[C@H](CC(=O)O)NC1=O)NC(=O)[C@H](CC(C)(C)C)NC(=O)[C@H](CC(=O)O)NC2=O (stereo partly drawn) [I-2388, Ac-PL3-Asp-Npg-B5-Asp-3COOHF-Ala-Ala-Phe-Leu-PyrS2-2F3MeF-BztA-Gln-Leu-Cbg-NH2]
7 | – | 23.6 µM | – | – | 0.005 µM | > 20 µM | CC(=O)N1CCC[C@]12CC=CCCCC1(CCCC=CCCCOC(=O)N3CC[C@@](C(=O)N[C@@H](Cc4ccsc4)C(=O)N[C@@H](Cc4csc5ccccc45)C(=O)N[C@@H](CCC(N)=O)C(=O)O)(C3)NC(=O)[C@H](CC(N)=O)NC(=O)[C@H](Cc3ccccc3)NC(=O)[C@H](C)NC(=O)[C@H](C)NC(=O)[C@H](CC(=O)O)NC(=O)[C@H](CC(=O)O)NC1=O)NC(=O)[C@H](CC(C)(C)C)NC(=O)[C@H](CC(=O)O)NC2=O (stereo partly drawn) [I-1025, Ac-PL3-Asp-Npg-B5-Asp-Asp-Ala-Ala-Phe-Asn-PyrS2-3Thi-BztA-Gln-OH]
8 | 0.019 µM | 15.7 µM | – | – | – | 3.8 µM | CC(=O)N1CCC[C@]12CC=CCCCC1(CCCC=CCCCOC(=O)N3CC[C@@](C(=O)N[C@@H](Cc4ccccc4Cl)C(=O)N[C@@H](Cc4csc5ccccc45)C(=O)N[C@H](CO)[C@@H](C)O)(C3)NC(=O)[C@H]([C@@H](C)O)NC(=O)[C@H](Cc3ccccc3)NC(=O)[C@H](C)NC(=O)[C@H](C)NC(=O)[C@H](CN(CC(=O)O)CC(F)(F)F)NC(=O)[C@H](CC(=O)O)NC1=O)NC(=O)[C@H](CC(C)(C)C)NC(=O)[C@H](CC(=O)O)NC2=O (stereo partly drawn) [I-1241, Ac-PL3-Asp-Npg-B5-Asp-TfeGA-Ala-Ala-Phe-Thr-PyrS2-2C1F-BztA-Thro1]
9 | 0.033 µM | 11.5 µM | – | – | – | 4.9 µM | CCNC(=O)[C@H](CCC(N)=O)NC(=O)[C@H](Cc1csc2ccccc12)NC(=O)[C@H](Cc1ccccc1Cl)NC(=O)[C@]12CCN(C1)C(=O)OCCCC=CCCCC1(CCCC=CC[C@]3(CCCN3C(C)=O)C(=O)N[C@@H](CC(=O)O)C(=O)N[C@@H](CC(C)(C)C)C(=O)N1)C(=O)N[C@@H](CC(=O)O)C(=O)N[C@@H](CN(CC(=O)O)CC(F)(F)F)C(=O)N[C@@H](C)C(=O)N[C@@H](C)C(=O)N[C@@H](Cc1ccccc1)C(=O)N[C@@H]([C@@H](C)O)C(=O)N2 (stereo partly drawn) [I-1240, Ac-PL3-Asp-Npg-B5-Asp-TfeGA-Ala-Ala-Phe-Thr-PyrS2-2C1F-BztA-Gln-NHEt]
10 | 0.014 µM | 4.8 µM | 3.9 µM | – | – | – | CC(=O)N1CCC[C@]12CC=CCCCC1(CCCC=CCCCOC(=O)N3CC[C@@](C(=O)N[C@@H](Cc4ccccc4C(F)(F)F)C(=O)N[C@@H](Cc4csc5ccccc45)C(=O)N[C@@H](CCC(N)=O)C(N)=O)(C3)NC(=O)[C@H](CC(C)C)NC(=O)[C@H](Cc3ccccc3)NC(=O)[C@H](C)NC(=O)[C@H](C)NC(=O)[C@H](CC(=O)O)NC(=O)[C@H](CC(=O)O)NC1=O)NC(=O)[C@H](CC(C)(C)C)NC(=O)[C@H](CC(=O)O)NC2=O (stereo partly drawn) [I-1318, Ac-PL3-Asp-Npg-B5-Asp-Asp-Ala-Ala-Phe-Leu-PyrS2-2F3MeF-BztA-Gln-NH2]
11 | 0.018 µM | 17.7 µM | 15.9 µM | – | – | 13.9 µM | CCNC(=O)[C@H](CO)NC(=O)[C@H](Cc1csc2ccccc12)NC(=O)[C@H](Cc1ccccc1Cl)NC(=O)[C@]12CCN(C1)C(=O)OCCCC=CCCCC1(CCCC=CC[C@]3(CCCN3C(C)=O)C(=O)N[C@@H](CC(=O)O)C(=O)N[C@@H](CC(C)(C)C)C(=O)N1)C(=O)N[C@@H](CC(=O)O)C(=O)N[C@@H](CC(=O)O)C(=O)N[C@@H](C)C(=O)N[C@@H](C)C(=O)N[C@@H](Cc1ccccc1)C(=O)N[C@@H]([C@@H](C)O)C(=O)N2 (stereo partly drawn) [I-1244, Ac-PL3-Asp-Npg-B5-Asp-Asp-Ala-Ala-Phe-Thr-PyrS2-2C1F-BztA-Ser-NHEt]
12 | 0.005 µM | 17.1 µM | 9.5 µM | – | – | – | CC(=O)N1CCC[C@]12CC=CCCCC1(CCCC=CCCCOC(=O)N3CC[C@@](C(=O)N[C@@H](Cc4ccsc4)C(=O)N[C@@H](Cc4csc5ccccc45)C(=O)N[C@@H](CCC(N)=O)C(N)=O)(C3)NC(=O)[C@H](CC(C)C)NC(=O)[C@H](Cc3ccccc3)NC(=O)[C@H](C)NC(=O)[C@H](C)NC(=O)[C@H](Cn3cc(C4(C(=O)O)CC4)nn3)NC(=O)[C@H](CC(=O)O)NC1=O)NC(=O)[C@H](CC(C)(C)C)NC(=O)[C@H](CC(=O)O)NC2=O (stereo partly drawn) [I-2445, Ac-PL3-Asp-Npg-B5-Asp-[CCpCO2H]TriAzDap-Ala-Ala-Phe-Leu-PyrS2-3Thi-BztA-Gln-NH2]

— patent US20240116985A1, “STAPLED PEPTIDES AND METHODS THEREOF” (priority 2020, published 2024)
